We go through one compound from ChEMBL document CHEMBL3856258, “Phosphonate-based irreversible inhibitors of human γ-glutamyl transpeptidase (GGT). GGsTop is a non-toxic and highly selective inhibitor with critical electrostatic interaction with an active-site residue Lys562 for enhanced inhibitory activity” (Bioorg Med Chem, 2016).

The nature of the series: Cytotoxicity against CHL cells assessed as growth rate at 33.8 ug/ml after 24 hrs in absence of S9 fraction by MTT assay relative to control. The settings on record: chinese hamster, read-out: Activity. It is filed as toxicity, cell-based, Cricetulus griseus.

For the compound `COP(=O)(CCC(N)C(=O)O)Oc1cccc(CC(=O)O)c1` (stereo unspecified), the viability at 24 h, 33.8 ug/ml amounted to 105%.
